Measured values published in US20220249819A1, “MICRONEEDLES, AND METHODS FOR THE MANUFACTURE THEREOF” (UNIVERSITY COLLEGE CORK - NATIONAL UNIVERSITY OF IRELAND, …, priority 2019, published 2022).

What was measured:
Format in all cases: physicochemical
[1] = Ability to form a glassy, amorphous form following heat-melting and cooling (XRD)
Description: As used herein, the term “meltable drug” or “meltable active pharmaceutical ingredient” refers to an active pharmaceutical ingredient that can be heat-melted to a molten form and has the following properties: • solid at 25° C.; • ability to form a glassy, amorphous form following heat-melting and cooling; and • the amorphous form having a glass transition temperature typically greater than 25° C. Examples of meltable drugs include; antifungals (for example, Itraconazole, Clotrimazole, Ketoconazole, Fluconazole, or derivatives or variants thereof), corticosteroids (for example, Estradiol, betamethasone valerate or derivatives or variants thereof), Anti-inflammatory drugs (for example, Celecoxib, Diclofenac, Sulindac, Indomethacin), Antimicrobials and Antibiotics (for example, Cefuroxime […], Chloramphenicol or derivatives or variants thereof), Cardiovascular and Antihypertensives (Carvedilol, Nifedipine or derivatives or variants thereof), Autonomic nervous system and Psychiatrics medications (Droperidol or derivatives or variants thereof), Antilipidemic and Cholesterol medications (Probucol, Simvastatin or derivatives or variants thereof), Gastrointestinal medications (Famotidine, Omeprazole or derivatives or variants thereof), Respiratory medications, Endocrine medications, Immunomodulators, Oncology drugs, Renal medications, Neurologic medications and anti-migraine (Zolmitriptan or derivatives or variants thereof). Typically, the meltable drug forms a stable amorphous form following melting and cooling; in this context, the formation of amorphous structure is confirmed by the XRD technique. X-ray powder Diffraction (XRD) is an analytical technique primarily used for phase identification of a crystalline material, in which the crystalline structure causes a beam of incident X-rays to diffract into many specific directions. It works best for materials that are crystalline or partially crystalline (i.e., that have periodic structural order) but is also used to study non-crystalline materials FIG. 3.

[2] = Glass transition temperature (Tg) of meltable drug in amorphous form by Differential Scanning calorimetry (DSC)
Description: (§1) The meltable active pharmaceutical ingredient forms a stable amorphous form following melting and cooling; in this context, the term “stable” as applied to the amorphous form means that the thermodynamic tendency of the active pharmaceutical ingredient to crystallize over one year is resisted. […] In this context, minimal degradation means that at least 90% of the active pharmaceutical ingredient retains its therapeutic activity following melting and cooling. […] Also, analysis of ^1H and ^13C NMR confirmed the chemical structure of ITZ, with molecular formula C35H38Cl2N8O4. […] Which indicating the chemical stability of both ITZ melts (FIG. 5). Differential Scanning calorimetry (DSC) may be employed to determine the glass transition temperature (Tg) of a meltable drug in amorphous form DSC utilizes a heat flow technique and compares the amount of heat supplied to the test sample and a similarly heated “reference” to determine transition points. Tg is typically calculated by using a half-height technique in the transition region FIG. 6.

[3] = Chemical stability before and after melting for microneedle fabrication (LC-MS, 1H and 13C NMR)
Description: as §1

GLASSY AND AMORPHOPUS FORM [1]	GLASS TRANSITION TEMP (TG ° C.) [2] [°C]	chemical stability of melts (1H and 13C NMR difference versus unmelted ITZ) [3]	stability before and after melting (LC-MS fragmentation pattern) ([3]; LC-MS, ITZ vs ITZ melt)	SMILES
YES	54			CCCCC(=O)O[C@]1(C(=O)CO)[C@@H](C)C[C@H]2[C@@H]3CCC4=CC(=O)C=C[C@]4(C)[C@@]3(F)[C@@H](O)C[C@@]21C [Betamethazone valerate]
YES	32			Clc1ccccc1C(c1ccccc1)(c1ccccc1)n1ccnc1 [Clotrimazole]
YES	53			O=C(O)Cc1ccccc1Nc1c(Cl)cccc1Cl [Diclofenac]
YES	32			OC(Cn1cncn1)(Cn1cncn1)c1ccc(F)cc1F [Fluconazole]
		No difference		CCC(C)n1ncn(-c2ccc(N3CCN(c4ccc(OCC5COC(Cn6cncn6)(c6ccc(Cl)cc6Cl)O5)cc4)CC3)cc2)c1=O (centres unmarked) [ITZ melt1]
		No difference		CCC(C)n1ncn(-c2ccc(N3CCN(c4ccc(OCC5COC(Cn6cncn6)(c6ccc(Cl)cc6Cl)O5)cc4)CC3)cc2)c1=O (centres unmarked) [ITZ melt2]
YES	45			COc1ccc2c(c1)c(CC(=O)O)c(C)n2C(=O)c1ccc(Cl)cc1 [Indomethacin]
			high stability	CCC(C)n1ncn(-c2ccc(N3CCN(c4ccc(OCC5COC(Cn6cncn6)(c6ccc(Cl)cc6Cl)O5)cc4)CC3)cc2)c1=O (centres unmarked) [Itraconazole]
YES	46			CC(=O)N1CCN(c2ccc(OCC3COC(Cn4ccnc4)(c4ccc(Cl)cc4Cl)O3)cc2)CC1 (centres unmarked) [Ketoconazole]
YES	75			CC1=C(CC(=O)O)c2cc(F)ccc2/C1=C\c1ccc([S+](C)[O-])cc1 (centres unmarked) [Sulindac]
